Experimental data published in patent US20080193566A1, “Use of high dose concentrations of gaseous nitric oxide” (priority 2007, published 2008).

Legend:
[1] = test system: A549-epithelial lung carcinoma cells; experiment: MTS proliferation assay, A549 cells exposed to 200 or 350 ppm gNO (Example 1); assay type: cell-based, human; parameters: MTS assay reading, Average / MTS assay reading, Corrected Average: unit not given here; details: for MTS assay reading, Corrected Average: blank subtracted; for Survival: vs air control
Experimental: The purpose of this example is to illustrate the effect of continuous gaseous nitric oxide (gNO) 200 ppm and 350 ppm compared to air (control) on the survival of a representative line of cancer cells. Cancer cell lines (A549-epithelial lung carcinoma cells and H460-epithelial metastatic; large cell lung cancer cells) were prepared in F12 medium and suspended in six 96-well plates (3 treatment and 3 controls). […] The plates then were removed and cell viability assessed by an MTS proliferation assay.
(§1) When exposed to 350 ppm of gNO, however, cancer cell survival rates decrease dramatically.

[2] = test system: H460-epithelial metastatic; large cell lung cancer cells; experiment: MTS proliferation assay, H460 cells exposed to 350 ppm gNO (Example 1); assay type: cell-based, human; details: 350 ppm NO, 2 hours, RPMI medium
Description: The purpose of this example is to illustrate the effect of continuous gaseous nitric oxide (gNO) 200 ppm and 350 ppm compared to air (control) on the survival of a representative line of cancer cells. […] […] The plates then were removed and cell viability assessed by an MTS proliferation assay.
as §1

Staphylococcus aureus = experiment: S. aureus on blood agar plates exposed to 25,000 ppm gNO (Example 2); assay type: cell-based
Description: The purpose of this example is to observe the possibility of a novel bactericidal high dose (25,000 ppm) effect of gaseous nitric oxide (gNO) on an ATCC strain of Staphylococcous aureus plated on a blood agar media and determine a time effect of this dosage.
A closed environment treatment chamber was used (see, “A direct nitric oxide gas delivery system for bacterial and mammalian cell cultures,” A. Ghaffari, D. H. Neil, A. Ardakani, J. Road, A. Ghahary, C. C. Miller. Nitric Oxide 12(3):129-140, 2005, herein incorporated by reference in its entirety). The following steps were performed: • 1. Calibrated the AeroNOx analyzer as per standard procedure. • 2. Calibrated the closed environment treatment chamber as per standard procedure. • 3. In a 50 mL tube, known Staphylococcus aureus bacteria in 10 mL Nutrient Broth was grown overnight or for about 12 hours in a shaker incubator. • 4. Measured optical density of grown Staphylococcus aureus using a spectrophotometer set at 600 nm. Used original nutrient broth as a blank. O.D. should be 1.0±10%. • 5. Turned on closed environment treatment chamber. • 6. Labeled three plates: Air, NO+1 minute, NO+3 minutes. • 7. Immersed a sterile cotton swab into the bacterial mixture in the 50 mL tube and shaked off excess liquid. • 8. Swiped one plate entirely in two directions with the swab. • 9. […] After incubation, recorded results with digital pictures. • 14. […]

[3] = test system: non-small cell lung cancer (NSCLC) cells lines; experiment: MTS cell proliferation assay, 25,000 ppm gNO (Example 4), NSCLC cell line panel; assay type: cell-based, human; details: between 6 and 9 minutes, all five cancer cell lines
Description: The purpose of this example is to illustrate the tumorcidal activity of high-dosage gNO. We examined the cellular sensitivity to 25,000 ppm of gNO on 5 non-small cell lung cancer (NSCLC) cells lines by an MTS cell proliferation assay.
Human lung cancer cell lines A549, NCI-H23, NCI-H460, HTB-58, H2170, and H441 (commercially available from American Type Culture Collection (“ATCC”), Manassas, Va.) were maintained in culture medium recommended by ATCC. All media were supplemented with 1% penicillin/streptomycin and 10% fetal bovine serum (commercially available from Invitrogen Gibco-BRL, Burlington, Ontario, Canada). […]
After 24 hours, the A549, NCI-H23, NCI-H460, HTB-58, H2170 and H441 cells were treated with 25,000 ppm gNO or air (control) for 1 minute, 3 minutes, 6 minutes, 9 minutes, 10 minutes, 20 minutes, and 30 minutes. Immediately following treatment, the viability of the cells was determined using a colorimetric MTS (3-(4,5-dimethylthiazol-2-yl)-5-(3-carboxymethoxyphenyl)-2-(4-sulfophenyl)-2H-tetrazolium, inner salt) cell proliferation assay (commercially available as the CellTiter 96® Aqueous One Solution Cell Proliferation Assay (MTS) from Promega, Madison, Wis., USA) according to the manufacturer's protocol. […] Absorbance was measured at 490 nm for each well using a micro-plate reader (commercially available from Dynex Technologies, Chantilly, Va., USA). […]

[4] = Viability after 25,000 ppm gNO (Example 5), NHBE; assay type: cell-based; details: human, normal human bronchial epithelial cells (NHBE)
Experimental: (§2) The purpose of this example is to illustrate the effects on normal human cell lines compared to the effects on cancerous cell lines of high-dosage gNO.
(§3) The above study was repeated. In addition to the A549, NCI-H23, NCI-H460, HTB-58, H2170 and H441 cells, four other cell lines were added—normal human bronchial epithelial cells (NHBE), normal human endothelial lung vascular cells (NHVE), normal human fibroblast cells (NHLF), and a squamous lung cancer cell line (H2170).
(§4) FIG. 8, embodiments A, B, C, and D, illustrate the viability of thee three normal human cell lines and one cancerous cell line to which 25,000 ppm gNO is administered for up to 15 minutes. The NHBE cells (embodiment A), experienced a decrease in viability after only 6 minutes of 25,000 ppm gNO administration, resulting in a viability of less than 10%. The NHVE cells (embodiment B) experienced a decrease in viability after only 6 minutes of 25,000 ppm gNO administration, resulting in a viability of less than 10%. The NHLF cells (embodiment C) also experienced a decrease in viability after only 6 minutes of 25,000 ppm gNO administration, resulting in a viability of about 30%. The H2170 cancerous cells experienced a dramatic decrease in viability after only 6 minutes of 25,000 ppm gNO administration, resulting in a viability of less than 10%.

[5] = Viability after 25,000 ppm gNO (Example 5), NHVE; assay type: cell-based; details: human, normal human endothelial lung vascular cells (NHVE)
Experimental: as §2, §3, §4

[6] = Viability after 25,000 ppm gNO (Example 5), NHLF; assay type: cell-based; details: human, normal human lung fibroblast cells (NHLF)
Experimental: as §2, §3, §4

cancer cell lines = experiment: Viability after 25,000 ppm gNO (Example 5, repeat), cancer cell line panel; assay type: cell-based, human; details: between about 6 and about 9 minutes, all five cancer cell lines, repeat study
Experimental: as §2, §3

[7] = 200 ppm NO, 1 hour, HBSS medium
[8] = 200 ppm NO, 2.5 hours, F12 medium
[9] = 200 ppm NO, 2.5 hours, HBSS medium
[10] = 200 ppm NO, 3.5 hours, F12 medium
[11] = 200 ppm NO, 3.5 hours, HBSS medium
[12] = 350 ppm NO, 2 hours, F12 medium

Compound: [N]=O [gNO, nitric oxide]
- MTS assay reading, Average ([1]; 200 ppm NO, 1 hour, F12 medium): 0.852
- MTS assay reading, Corrected Average ([1]; 200 ppm NO, 1 hour, F12 medium): 0.621
- Survival ([1]; 200 ppm NO, 1 hour, F12 medium): about 92%
- MTS assay reading, Average [1, 7]: 0.06
- MTS assay reading, Corrected Average [1, 7]: 0
- MTS assay reading, Average [1, 8]: 1.276
- MTS assay reading, Corrected Average [1, 8]: 0.918
- Survival [1, 8]: about 90%
- MTS assay reading, Average [1, 9]: 0.06
- MTS assay reading, Corrected Average [1, 9]: 0
- MTS assay reading, Average [1, 10]: 1.529
- MTS assay reading, Corrected Average [1, 10]: 1.059
- Survival [1, 10]: about 87%
- MTS assay reading, Average [1, 11]: 0.061
- MTS assay reading, Corrected Average [1, 11]: 0
- MTS assay reading, Average [1, 12]: 0.110
- MTS assay reading, Corrected Average [1, 12]: 0.009
- MTS assay reading, Average [2]: 0.158
- MTS assay reading, Corrected Average ([2]; blank subtracted): 0.037
- plate appearance after incubation (FIG. 4) (Staphylococcus aureus; 1 minute of exposure): still shows signs of the S. aureus
- plate appearance after incubation (FIG. 5) (Staphylococcus aureus; 3 minutes of exposure): no signs of the S. aureus
- cells killed [3]: 75-95%
- viability at 6 min, 25000 ppm [4]: < 10%
- viability at 6 min, 25000 ppm [5]: < 10%
- viability at 6 min, 25000 ppm ([6]; 6 minutes): ~30%
- viability at 15 min, 25000 ppm ([6]; after 15 minutes of exposure): 30%
- cells killed (cancer cell lines): 75-95%
